From ChEMBL document CHEMBL4229333, “Effects of rigidity on the selectivity of protein kinase inhibitors” (Eur J Med Chem, 2018)
The source made the active and inactive calls. No cut-off for these calls is given here.

Key:
[1] = biological target: T1, Tyrosine-protein kinase ABL1 (Homo sapiens, UniProt P00519); test: Inhibition of ABL (unknown origin) by phosphocellulose paper disk assay
[2] = biological target: Serine/threonine-protein kinase B-raf (Homo sapiens, UniProt P15056, V600E); test: Inhibition of BRAF V600E mutant (unknown origin) after 20 mins by immunoblotting assay
Chain of Serine/threonine-protein kinase B-raf (P15056 2-766 V600E limits assumed): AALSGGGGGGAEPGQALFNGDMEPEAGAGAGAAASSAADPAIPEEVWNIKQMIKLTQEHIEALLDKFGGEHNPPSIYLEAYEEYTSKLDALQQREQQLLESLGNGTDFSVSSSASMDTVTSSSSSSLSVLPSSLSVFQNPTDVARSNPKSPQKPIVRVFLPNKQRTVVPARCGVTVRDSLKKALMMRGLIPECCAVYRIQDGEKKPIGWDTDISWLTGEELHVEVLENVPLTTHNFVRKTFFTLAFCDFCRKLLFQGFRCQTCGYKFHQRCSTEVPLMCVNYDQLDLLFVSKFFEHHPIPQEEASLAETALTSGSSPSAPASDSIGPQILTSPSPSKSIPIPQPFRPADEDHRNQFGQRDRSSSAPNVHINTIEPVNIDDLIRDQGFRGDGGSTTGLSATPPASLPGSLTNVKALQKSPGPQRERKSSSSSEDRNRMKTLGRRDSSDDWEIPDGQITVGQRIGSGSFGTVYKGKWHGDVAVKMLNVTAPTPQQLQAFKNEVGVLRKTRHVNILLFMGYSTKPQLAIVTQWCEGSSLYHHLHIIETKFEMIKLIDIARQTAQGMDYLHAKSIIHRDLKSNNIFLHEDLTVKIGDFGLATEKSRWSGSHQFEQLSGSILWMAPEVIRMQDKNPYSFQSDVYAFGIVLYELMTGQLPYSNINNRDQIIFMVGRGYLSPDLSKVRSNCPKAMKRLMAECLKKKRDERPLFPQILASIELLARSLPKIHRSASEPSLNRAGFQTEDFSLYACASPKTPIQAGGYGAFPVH

[3] = system: Serine/threonine-protein kinase B-raf (Homo sapiens), P15056 [V600E]; test: Inhibition of BRAF V600E mutant in human A375 cells assessed as decrease in MEK phosphorylation up to 100 uM after 1 hr by immunoblotting assay; type: cell-based
Chain of Serine/threonine-protein kinase B-raf (Homo sapiens), P15056 [V600E] (P15056 whole entry V600E): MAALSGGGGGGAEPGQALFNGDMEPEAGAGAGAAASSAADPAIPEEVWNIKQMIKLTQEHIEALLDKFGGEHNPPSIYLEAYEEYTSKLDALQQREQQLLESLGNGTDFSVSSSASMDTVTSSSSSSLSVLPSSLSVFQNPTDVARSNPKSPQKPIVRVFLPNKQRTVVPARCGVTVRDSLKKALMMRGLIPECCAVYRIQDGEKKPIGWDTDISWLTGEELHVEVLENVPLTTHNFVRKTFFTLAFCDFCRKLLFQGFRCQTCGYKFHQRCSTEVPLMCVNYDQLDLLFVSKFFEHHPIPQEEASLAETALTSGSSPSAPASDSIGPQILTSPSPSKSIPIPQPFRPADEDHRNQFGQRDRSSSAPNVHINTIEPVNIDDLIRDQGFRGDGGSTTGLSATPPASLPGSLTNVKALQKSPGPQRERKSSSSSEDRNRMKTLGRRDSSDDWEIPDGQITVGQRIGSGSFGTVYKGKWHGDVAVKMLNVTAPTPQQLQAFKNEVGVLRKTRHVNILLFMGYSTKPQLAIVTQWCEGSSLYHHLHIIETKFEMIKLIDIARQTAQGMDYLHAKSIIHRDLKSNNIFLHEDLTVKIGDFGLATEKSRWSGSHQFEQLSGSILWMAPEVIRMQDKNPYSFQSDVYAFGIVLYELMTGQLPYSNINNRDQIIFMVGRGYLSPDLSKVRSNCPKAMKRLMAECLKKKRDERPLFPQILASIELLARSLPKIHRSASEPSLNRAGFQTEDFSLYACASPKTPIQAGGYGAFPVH

[4] = biological target: T1, Tyrosine-protein kinase ABL1; test: Inhibition of ABL (unknown origin) at 30 nM by phosphocellulose paper disk assay
Bcr/Abl fusion protein = Bcr/Abl fusion protein (Homo sapiens, UniProt P00519); test: Inhibition of BCR-ABL (unknown origin) expressed in mouse BA/F3 cells assessed as reduction in ABL phosphorylation at Y412 residue incubated for 3 hrs by immunoblotting assay; type: cell-based
Chain of Bcr/Abl fusion protein (P00519 whole entry, the tested form may be a part): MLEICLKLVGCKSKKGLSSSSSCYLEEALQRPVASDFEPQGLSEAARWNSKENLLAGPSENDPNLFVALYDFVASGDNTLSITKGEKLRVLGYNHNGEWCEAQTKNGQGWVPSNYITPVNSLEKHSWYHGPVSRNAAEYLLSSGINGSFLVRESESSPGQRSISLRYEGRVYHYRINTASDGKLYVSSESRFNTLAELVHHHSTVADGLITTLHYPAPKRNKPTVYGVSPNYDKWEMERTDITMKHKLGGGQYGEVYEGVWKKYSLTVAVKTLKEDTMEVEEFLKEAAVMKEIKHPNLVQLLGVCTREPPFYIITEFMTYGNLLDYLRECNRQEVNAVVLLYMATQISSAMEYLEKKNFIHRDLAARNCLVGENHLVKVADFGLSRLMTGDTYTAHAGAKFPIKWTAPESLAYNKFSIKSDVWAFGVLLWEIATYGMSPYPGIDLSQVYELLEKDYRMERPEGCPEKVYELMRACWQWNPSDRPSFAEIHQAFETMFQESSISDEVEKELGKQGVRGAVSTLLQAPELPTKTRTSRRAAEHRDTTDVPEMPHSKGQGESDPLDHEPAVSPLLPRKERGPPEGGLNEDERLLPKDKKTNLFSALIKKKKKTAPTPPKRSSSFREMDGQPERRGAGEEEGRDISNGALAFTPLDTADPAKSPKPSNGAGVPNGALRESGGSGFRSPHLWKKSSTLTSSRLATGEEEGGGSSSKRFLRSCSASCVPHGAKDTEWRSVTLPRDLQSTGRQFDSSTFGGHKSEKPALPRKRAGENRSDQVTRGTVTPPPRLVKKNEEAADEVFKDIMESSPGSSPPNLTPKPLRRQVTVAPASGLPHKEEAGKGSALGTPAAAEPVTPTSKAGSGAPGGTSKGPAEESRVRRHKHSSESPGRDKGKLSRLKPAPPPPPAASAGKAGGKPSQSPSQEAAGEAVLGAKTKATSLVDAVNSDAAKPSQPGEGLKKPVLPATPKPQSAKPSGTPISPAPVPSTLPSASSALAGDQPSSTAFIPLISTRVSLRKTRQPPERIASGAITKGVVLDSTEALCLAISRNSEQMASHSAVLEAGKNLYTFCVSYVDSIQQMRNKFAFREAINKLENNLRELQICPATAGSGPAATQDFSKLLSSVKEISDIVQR
Chain of Bcr/Abl fusion protein (P11274 whole entry, further chain, the tested form may be a part): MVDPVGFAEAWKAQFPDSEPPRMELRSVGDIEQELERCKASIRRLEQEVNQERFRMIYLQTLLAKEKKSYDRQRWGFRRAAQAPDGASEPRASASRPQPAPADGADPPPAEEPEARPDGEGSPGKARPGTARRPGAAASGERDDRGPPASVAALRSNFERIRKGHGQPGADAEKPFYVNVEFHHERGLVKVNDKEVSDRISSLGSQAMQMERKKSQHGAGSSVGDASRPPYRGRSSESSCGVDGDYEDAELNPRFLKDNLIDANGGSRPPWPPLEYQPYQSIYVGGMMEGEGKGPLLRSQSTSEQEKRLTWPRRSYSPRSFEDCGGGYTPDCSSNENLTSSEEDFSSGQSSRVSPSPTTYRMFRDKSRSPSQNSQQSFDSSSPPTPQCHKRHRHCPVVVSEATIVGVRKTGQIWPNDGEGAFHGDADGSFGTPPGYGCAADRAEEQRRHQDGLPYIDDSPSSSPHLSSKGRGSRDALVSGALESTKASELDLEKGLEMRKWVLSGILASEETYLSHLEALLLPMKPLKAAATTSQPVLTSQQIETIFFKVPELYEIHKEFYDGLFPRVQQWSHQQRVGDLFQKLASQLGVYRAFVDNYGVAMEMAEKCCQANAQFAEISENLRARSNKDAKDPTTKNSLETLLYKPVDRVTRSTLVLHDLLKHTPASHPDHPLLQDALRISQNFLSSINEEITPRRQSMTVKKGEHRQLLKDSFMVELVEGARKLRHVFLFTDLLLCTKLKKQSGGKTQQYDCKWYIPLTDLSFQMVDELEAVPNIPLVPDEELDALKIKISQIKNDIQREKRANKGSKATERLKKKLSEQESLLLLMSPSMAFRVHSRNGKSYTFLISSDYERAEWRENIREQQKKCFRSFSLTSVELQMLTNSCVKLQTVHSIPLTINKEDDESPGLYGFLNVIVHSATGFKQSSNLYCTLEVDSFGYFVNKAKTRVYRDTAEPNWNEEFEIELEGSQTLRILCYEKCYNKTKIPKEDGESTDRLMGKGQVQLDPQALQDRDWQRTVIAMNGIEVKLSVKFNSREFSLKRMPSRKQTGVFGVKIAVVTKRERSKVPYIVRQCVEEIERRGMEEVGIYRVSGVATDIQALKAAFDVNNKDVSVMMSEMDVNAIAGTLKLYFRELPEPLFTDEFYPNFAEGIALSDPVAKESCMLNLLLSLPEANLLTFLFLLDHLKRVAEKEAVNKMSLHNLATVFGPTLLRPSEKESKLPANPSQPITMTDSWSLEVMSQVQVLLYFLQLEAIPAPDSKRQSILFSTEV

T1 sequence (P00519 whole entry): as the sequence (P00519 whole entry, the tested form may be a part) above

SMILES | IC50 [1] [nM] | IC50 [2] [nM] | inhibition [3] | inhibition [4] | IC50 (Bcr/Abl fusion protein) [nM]
CCn1nc(C#Cc2cccc3cc(-c4cccc(C(F)(F)F)c4)ncc23)c2c(N)ncnc21 | 3.5 | 13 | inactive | inactive | 
CC(C)n1nc(C#Cc2cccc3cc(-c4ccc(Cl)c(C(F)(F)F)c4)ncc23)c2c(N)ncnc21 | 22 | 87 |  | inactive | 
CC(C)n1nc(C#Cc2cccc3cc(-c4ccc(CN5CCN(C)CC5)cc4)ncc23)c2c(N)ncnc21 | 7 | 51 |  | inactive | 211
Cc1ccc2cc(-c3cccc(C(F)(F)F)c3)ncc2c1C#Cc1nn(C(C)C)c2ncnc(N)c12 | 10 | 44 |  | inactive | 
Cc1ccc(-c2cc3cccc(C#Cc4nn(C(C)C)c5ncnc(N)c45)c3cn2)cc1 |  | 24 |  |  | 
CC(C)n1nc(C#Cc2cccc3cc(-c4ccc(Cl)cc4)ncc23)c2c(N)ncnc21 |  | 46 |  |  | 
